Kd data for one compound are collected here from paper PMC3922309, “Differential roles of tryptophan residues in conformational stability of Porphyromonas gingivalis HmuY hemophore” (BMC Biochemistry, 2014).

Structures are written as SMILES.

Assay [1] has as its target HmuY (Porphyromonas gingivalis, UniProt A2BCY8, W73A). The experiment in a line: biochemical.
In assay [2] the target is HmuY (Porphyromonas gingivalis, UniProt A2BCY8, W161A). Description: biochemical.
In assay [3] the target is HmuY (Porphyromonas gingivalis, UniProt A2BCY8, W161Y). Description: biochemical.
Chain of HmuY (Porphyromonas gingivalis, UniProt A2BCY8, W161Y) (A2BCY8 26-216 W161Y): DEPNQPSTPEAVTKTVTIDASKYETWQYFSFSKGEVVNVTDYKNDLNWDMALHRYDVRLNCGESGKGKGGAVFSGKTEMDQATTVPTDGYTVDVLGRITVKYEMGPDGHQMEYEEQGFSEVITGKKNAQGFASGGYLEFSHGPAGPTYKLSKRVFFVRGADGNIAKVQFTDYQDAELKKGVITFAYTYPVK
In assay [4] the target is HmuY (Porphyromonas gingivalis, UniProt A2BCY8, W73Y). The experiment in a line: biochemical.
Chain of HmuY (Porphyromonas gingivalis, UniProt A2BCY8, W73Y) (A2BCY8 26-216 W73Y): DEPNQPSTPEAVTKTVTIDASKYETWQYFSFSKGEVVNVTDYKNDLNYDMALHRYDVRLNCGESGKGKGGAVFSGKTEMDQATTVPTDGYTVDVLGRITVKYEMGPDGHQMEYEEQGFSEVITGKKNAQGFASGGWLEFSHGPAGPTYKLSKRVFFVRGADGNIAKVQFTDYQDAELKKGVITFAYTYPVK
The target in assay [5] is HmuY (Porphyromonas gingivalis, UniProt A2BCY8, W51Y). Description: biochemical.
Chain of HmuY (Porphyromonas gingivalis, UniProt A2BCY8, W51Y) (A2BCY8 26-216 W51Y): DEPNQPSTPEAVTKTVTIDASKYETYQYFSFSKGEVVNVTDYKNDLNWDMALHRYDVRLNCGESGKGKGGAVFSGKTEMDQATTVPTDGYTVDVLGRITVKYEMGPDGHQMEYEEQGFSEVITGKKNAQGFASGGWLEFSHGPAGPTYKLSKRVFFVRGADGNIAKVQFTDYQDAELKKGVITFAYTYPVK
Assay [6] addresses HmuY (Porphyromonas gingivalis, UniProt A2BCY8, W51A). The experiment in a line: biochemical.
In assay [7] the target is T1, HmuY (Porphyromonas gingivalis, UniProt A2BCY8).
T1 construct: polypeptide lacking the first 25 residues, plasmid pHmuY11, expressed in Escherichia coli ER2566, purified from soluble lysate
T1 sequence (A2BCY8 entry or part of it): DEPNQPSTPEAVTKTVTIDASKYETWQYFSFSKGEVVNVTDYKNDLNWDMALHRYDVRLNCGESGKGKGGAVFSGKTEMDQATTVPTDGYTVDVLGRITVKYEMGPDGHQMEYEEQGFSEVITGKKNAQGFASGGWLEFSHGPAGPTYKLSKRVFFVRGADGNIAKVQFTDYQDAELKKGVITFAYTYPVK
The experiment in a line: heme titration of apoprotein (UV-visible / Trp fluorescence quenching), one-site model. Format: binding.

Chain of HmuY (Porphyromonas gingivalis, UniProt A2BCY8, W161A) (A2BCY8 26-216 W161A): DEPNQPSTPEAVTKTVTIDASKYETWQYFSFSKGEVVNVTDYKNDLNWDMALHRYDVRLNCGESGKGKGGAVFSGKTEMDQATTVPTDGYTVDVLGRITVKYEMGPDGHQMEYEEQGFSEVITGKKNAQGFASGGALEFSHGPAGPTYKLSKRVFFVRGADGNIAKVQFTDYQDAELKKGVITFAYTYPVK
Chain of HmuY (Porphyromonas gingivalis, UniProt A2BCY8, W73A) (A2BCY8 26-216 W73A): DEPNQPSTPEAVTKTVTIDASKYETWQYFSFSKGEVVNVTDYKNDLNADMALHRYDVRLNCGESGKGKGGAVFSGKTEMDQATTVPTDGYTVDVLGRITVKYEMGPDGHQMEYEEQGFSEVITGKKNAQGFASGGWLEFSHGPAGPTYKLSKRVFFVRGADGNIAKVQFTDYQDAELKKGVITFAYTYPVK
Chain of HmuY (Porphyromonas gingivalis, UniProt A2BCY8, W51A) (A2BCY8 26-216 W51A): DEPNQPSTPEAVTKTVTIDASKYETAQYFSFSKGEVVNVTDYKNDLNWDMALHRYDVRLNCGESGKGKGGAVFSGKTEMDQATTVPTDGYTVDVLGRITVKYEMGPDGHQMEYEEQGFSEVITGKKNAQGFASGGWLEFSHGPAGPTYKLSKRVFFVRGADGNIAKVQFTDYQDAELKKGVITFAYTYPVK

The Kd is the constant that tells how readily two partners part at equilibrium. Lower therefore signals tighter binding. For the compound `C=CC1=C(C)C2=Cc3c(C=C)c(C)c4[n]3[Fe]([Cl])[n]3c(c(C)c(CCC(=O)O)c3=CC3=NC(=C4)C(C)=C3CCC(=O)O)=CC1=N2` [heme], the Kd at HmuY [1] was found to be 229 ± 8 nM; at HmuY [2], 323 ± 16 nM; on HmuY [3], 235 ± 11 nM; on HmuY [4], 238 ± 12 nM; on HmuY [5], 216 ± 7 nM; at HmuY [6] it was 303 ± 13 nM. The affinity on HmuY [7], expressed as Kd, was 296 ± 12 nM.
